# In patent US5756532A, “Aminomethyl-2 3 8 9-tetrahydro-7H-1 4-dioxino[2 3-E]-indol-8-ones and derivatives” (American Home Products Corporation, priority 1996, dated 1998):
# System: mouse locomotor activity
# Assay: Reduction of mouse locomotor activity (hypolocomotion)
# Type: in vivo, mouse (male, CF-1)
# Details: 20 min, sc, horizontal activity counts collected 10 to 20 minutes after dosing
# Experimental: The antipsychotic activity of the compounds of the invention was further established by a determination of the compounds' ability to reduce mouse locomotor activity according to the method of Martin and Bendensky, J. Pharmacol. Exp. Therap. 229: 706-711, 1984, in which mice (male, CF-1, Charles River, 20-30 g) were injected with vehicle or various doses of each drug and locomotor activity was measured for 30 minutes using automated infrared activity monitors (Omnitech-8×8 inch open field) located in a darkened room. ED50 's were calculated from the horizontal activity counts collected from 10 to 20 minutes after dosing using a nonlinear regression analysis with inverse prediction.
row,SMILES,ED50 [mg/kg]
1,"O=C1Cc2c(c(F)cc3c2O[C@@H](CNCCCc2c[nH]c4ccccc24)CO3)N1 [Example 39, 6-Fluoro-2-{[3-(1H-indol-3-yl)-propylamino]-methyl}-2,3,8,9-tetrahydro-7H-1,4-dioxino[2,3-e]indol-8-one]",0.064
2,"COc1ccc(CNC[C@H]2COc3ccc4c(c3O2)CC(=O)N4)cc1 [Example 17, 2-[(4-Methoxy-benzylamino)-methyl]-2,3,8,9-tetrahydro-7H-1,4-dioxino[2,3-e]indol-8-one]",0.027
3,CN(C)c1cccc(OCCCNC[C@H]2COc3ccc4c(c3O2)CC(=O)N4)c1 [Example 11],0.0138
4,"O=C1Cc2c(ccc3c2O[C@@H](CNCc2cccs2)CO3)N1 [Example 12, 2-{[(Thionphen-2-ylmethyl)-amino]-methyl}-2,3,8,9-tetrahydro-7H-1,4-dioxino[2,3-e]indol-8-one]",0.0005
5,"O=C1Cc2c(ccc3c2O[C@@H](CNCCCc2c[nH]c4ccccc24)CO3)N1 [Example 3, 2-{[3-(Indol-3-yl)-propylamino]-methyl}-2,3,8,9-tetrahydro-7H-1,4-dioxino-[2,3-e]indol-8-one]",0.039
6,"Cc1ccc(CNC[C@H]2COc3cc(C)c4c(c3O2)CC(=O)N4)cc1 [Example 28, 2-[(4-Methyl-benzylamino)-methyl]-6-methyl-2,3,8,9-tetrahydro-7H-1,4-dioxino[2,3-e]indol-8-one]",0.024
7,Cc1ccc(CNC[C@H]2COc3ccc4c(c3O2)CC(=O)N4)cc1 [Example 7],0.005

# Biological target: T1, dopamine D2 receptor (Rattus norvegicus, UniProt P61169)
# T1 construct: homogenized rat striatal brain tissue; from tissue; host or cells: rat striatum (homogenate)
# Assay: Affinity for the dopamine D2 receptor (3H-quinpirole, rat striatal brain tissue homogenate)
# Type: binding
# Details: homogenized rat striatal brain tissue
# Experimental: Affinity for the dopamine D2 receptor was established by a modification of the standard experimental test procedure of Seemen and Schaus, European Journal of Pharmacology 203: 105-109, 1991, wherein homogenized rat striatal brain tissue is incubated with ^3 H-quinpirole and various concentrations of test compound, filtered and washed and counted in a Betaplate scintillation counter.
# T1 sequence (P61169 whole entry): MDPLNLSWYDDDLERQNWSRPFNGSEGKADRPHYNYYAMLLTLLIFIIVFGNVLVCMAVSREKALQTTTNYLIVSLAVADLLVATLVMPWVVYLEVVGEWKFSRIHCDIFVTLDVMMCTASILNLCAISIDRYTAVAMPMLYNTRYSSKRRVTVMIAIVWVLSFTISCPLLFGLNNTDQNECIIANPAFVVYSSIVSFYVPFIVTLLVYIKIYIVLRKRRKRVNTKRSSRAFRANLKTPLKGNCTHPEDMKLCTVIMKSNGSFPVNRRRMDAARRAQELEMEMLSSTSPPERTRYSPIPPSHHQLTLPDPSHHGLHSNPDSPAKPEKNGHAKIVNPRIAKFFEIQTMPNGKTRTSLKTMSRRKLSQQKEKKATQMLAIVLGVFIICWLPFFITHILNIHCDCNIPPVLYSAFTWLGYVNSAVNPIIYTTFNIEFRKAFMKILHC
row,SMILES,IC50 [nM]
1,O=C1Cc2c(ccc3c2O[C@@H](CNCCc2c[nH]c4ccccc24)CO3)N1 [Example 4],1.79
2,"Cc1ccc(C=C2C(=O)Nc3c(F)cc4c(c32)O[C@@H](CNCc2ccc(C)cc2)CO4)cc1 [Example 35, 6-Fluoro-2-[(4-methyl-benzylamino)-methyl]-9-(4-methyl-benzylidene)-2,3.8.9-tetrahydro-7H-1,4-dioxino[2,3-e]indol-8-one]",52.1
3,"O=C1Cc2c(c(F)cc3c2O[C@@H](CNCCCc2c[nH]c4ccccc24)CO3)N1 [Example 39, 6-Fluoro-2-{[3-(1H-indol-3-yl)-propylamino]-methyl}-2,3,8,9-tetrahydro-7H-1,4-dioxino[2,3-e]indol-8-one]",0.78
4,"O=C1Cc2c(c(Cl)cc3c2O[C@@H](CNCc2ccccc2)CO3)N1 [Example 45, 2-(Benzylamino)-methyl-6-chloro-2,3,8,9-tetrahydro-7H-1,4-dioxino[2,3-e]indol-8-one]",0.97
5,"CC(=O)Nc1cccc(OCCCNC[C@H]2COc3ccc4c(c3O2)CC(=O)N4)c1 [Example 23, N-(3-{3-[(8-Oxo-2,3,8,9-tetrahydro-7H-1,4-dioxinor[2,3-e]indol-2-ylmethyl)-amino]-propoxy}-phenyl)-acetamide]",0.89
6,"O=C1Cc2c(ccc3c2O[C@@H](CNCc2cccc(C(F)(F)F)c2)CO3)N1 [Example 25, 2-[(3-Trifluoromethyl-benzylamino)-methyl]-2,3,8,9-tetrahydro-7H-1,4-dioxino [2,3-e]indol-8-one]",1.04
7,"O=C1Cc2c(ccc3c2O[C@@H](CNCCCO)CO3)N1 [Example 5, 2-[(3-Hydroxy-propylamino)-methyl]-2,3,8,9-tetrahydro-7H-1,4-dioxino[2,3-e]indol-8-one]",1.42
8,"COc1ccc(CNC[C@H]2COc3ccc4c(c3O2)CC(=O)N4)cc1 [Example 17, 2-[(4-Methoxy-benzylamino)-methyl]-2,3,8,9-tetrahydro-7H-1,4-dioxino[2,3-e]indol-8-one]",0.68
9,CN(C)c1cccc(OCCCNC[C@H]2COc3ccc4c(c3O2)CC(=O)N4)c1 [Example 11],1.3
10,O=C1Nc2ccc3c(c2C1=Cc1ccc(F)cc1)O[C@@H](CNCc1ccc(F)cc1)CO3 [Example 22],17.7
11,"O=C1Cc2c(c(Cl)cc3c2O[C@@H](CNCc2ccc(F)cc2)CO3)N1 [Example 46, 6-Chloro-2-[(4-fluoro-benzylaimino)-methyl]-2,3,8,9-tetrahydro-7H-1,4-dioxino[2,3-e_]indol-8-one]",1
12,"O=C1Cc2c(c(F)cc3c2O[C@@H](CNCCCCc2ccccc2)CO3)N1 [Example 42, 6-Fluoro-2-[(4-phenyl-butylamino)-methyl]-2,3,8,9-tetrahydro-7H-1,4-dioxino[2,3-e]indol-8-one]",0.67
13,"NC[C@H]1COc2ccc3c(c2O1)CC(=O)N3 [Example 8, 2-Aminomethyl-2,3,8,9-tetrahydro-7H-1,4-dioxino[2,3-e]indol-8-one]",9.93
14,"Cc1ccc(CNC[C@H]2COc3cc(C)c4c(c3O2)CC(=O)N4)cc1 [Example 28, 2-[(4-Methyl-benzylamino)-methyl]-6-methyl-2,3,8,9-tetrahydro-7H-1,4-dioxino[2,3-e]indol-8-one]",1.39
15,"Cc1ccc(CNC[C@H]2COc3cc(Cl)c4c(c3O2)CC(=O)N4)cc1 [Example 44, 6-Chloro-2-[(4-methyl-benzylamino)-methyl]-2,3,8,9-tetrahydro-7H-1,4-dioxino[2,3-e]indol-8-one]",1.43
16,"O=C1Cc2c(c(Cl)cc3c2O[C@@H](CNCc2ccc(Cl)cc2)CO3)N1 [Example 43, 6-Chloro-2-[(4-chloro-benzylamino)-methyl]-2,3,8,9-tetrahydro-7H-1,4-dioxino[2,3-e]indol-8-one]",0.98
17,"O=C1Cc2c(ccc3c2O[C@@H](CNCCc2cccnc2)CO3)N1 [Example 10, 2-[(2-Pyridin-3yl-ethylamino)-methyl]-2,3,8,9-tetrahydro-7H-1,4-dioxino-[2,3-e]indol-8one]",3.06
18,"Cc1cc2c(c3c1NC(=O)C3)O[C@@H](CNCc1cccs1)CO2 [Example 29, 2-{[(Thiophene-2-ylmethyl)-amino]-methyl}-6-methyl-2,3,8,9-tetrahydro-7H-1,4-dioxino[2,3-e]indol-8-one]",3.3
19,O=C1Cc2c(ccc3c2O[C@@H](CNCCCOc2ccc4cccnc4c2)CO3)N1 [Example 13],1.39
20,Cc1cc2c(c3c1NC(=O)C3)O[C@@H](CNCc1ccc(F)cc1)CO2 [Example 32],2.15
21,"O=C1Nc2ccc3c(c2C1=Cc1ccccc1)O[C@@H](CNCc1ccccc1)CO3 [Example 2, 2-(Benzylamino-methyl)-1-benzylidene-2,3,8,9-tetrahydro-7H-1,4-dioxino[2,3-e]indol-8-one]",2.8
22,"O=C1CCc2c(ccc3c2O[C@@H](CNCc2ccccc2)CO3)N1 [Example 6, 2-(Benzylamino-methyl)-2,3,9,10-tetrahydro-7H-1,4-dioxino[2,3-f]quinolin-8-one]",12.3
23,"O=C1Cc2c(c(F)cc3c2O[C@@H](CNCC24CC5CC(CC(C5)C2)C4)CO3)N1 [Example 38, 2-{[(Adamantan-1-ylmethyl)-amino]-methyl}-6-fluoro-2,3,8,9-tetrahydro-7H-1,4-dioxino[2,3-e]indol-8-one]",1.08
24,"Cc1cc2c(c3c1NC(=O)C3)O[C@@H](CNCc1ccccc1)CO2 [Example 31, 2-(Benzylamino-methyl)-6-methyl-2,3,8,9-tetrahydro-7H-1,4-dioxino[2,3-e]indol-8-one]",1.3

# Molecules with a lower IC50, results first:
row,IC50 [nM],SMILES
1,0.37,"O=C1Cc2c(ccc3c2O[C@@H](CNCC2CCCCC2)CO3)N1 [Example 9, 2-(Cyclohexylmethylamino-methyl)-2,3,8,9-tetrahydro-7H-1,4-dioxino[2,3-e]indol-8-one]"
2,0.49,"O=C1Cc2c(ccc3c2O[C@@H](CNCc2cccc4ccccc24)CO3)N1 [Example 18, 2-(Napthalen-1-yl-methylamino-methyl)-2,3,8,9-tetrahydro-7H-1,4-dioxono[2,3-e]indol-8-one]"
3,0.51,"CN(C)c1cccc(OCCCNC[C@H]2COc3cc(F)c4c(c3O2)CC(=O)N4)c1 [Example 37, 2-{[3-(3-Dimethylamino-phenoxy)-propylamino]-methyl}-6-fluoro-2,3,8,9-tetrahydro-7H-1,4-dioxino[2,3-e]indol-8-one]"
4,0.56,"O=C1Cc2c(c(F)cc3c2O[C@@H](CNCc2ccc(C(F)(F)F)cc2)CO3)N1 [Example 41, 6-Fluoro-2-[(4-trifluoromethyl-benzylamino)-methyl]-2,3,8,9-tetrahydro-7H-dioxino[2,3-e]indol-8-one]"
5,0.52,O=C1Nc2ccc3c(c2C1=O)O[C@@H](CNCc1ccccc1)CO3 [Example 26]
6,0.51,"O=C1Cc2c(ccc3c2O[C@@H](CNCc2cccs2)CO3)N1 [Example 12, 2-{[(Thionphen-2-ylmethyl)-amino]-methyl}-2,3,8,9-tetrahydro-7H-1,4-dioxino[2,3-e]indol-8-one]"
7,0.14,"O=C1Cc2c(ccc3c2O[C@@H](CNCCCc2c[nH]c4ccccc24)CO3)N1 [Example 3, 2-{[3-(Indol-3-yl)-propylamino]-methyl}-2,3,8,9-tetrahydro-7H-1,4-dioxino-[2,3-e]indol-8-one]"
8,0.56,"O=C1Cc2c(c(F)cc3c2O[C@@H](CNCc2ccc(F)cc2)CO3)N1 [Example 34, 6-Fluoro-2-[(4-fluoro-benzylamino)-methyl]-2,3,8,9-tetrahydro-7H-1,4-dioxino[2,3-e]indol-8-one]"
9,0.53,"O=C1Cc2c(c(F)cc3c2O[C@@H](CNCc2ccc(Cl)cc2)CO3)N1 [Example 40, 2-[(4-Chloro-benzylamino)-methyl]-6-fluoro-2,3,8,9-tetrahydro-7H-1,4-dioxino[2,3-e]indol-8-one]"
10,0.57,"O=C1Cc2c(c(F)cc3c2O[C@@H](CNCc2ccccc2)CO3)N1 [Example 33, 2-(Benzylamino-methyl)-6-fluoro-2,3,8,9-tetrahydro-7H-1,4-dioxino[2,3-e]indol-8-one]"
11,0.34,"O=C1Cc2c(ccc3c2O[C@@H](CNCc2ccc(C(F)(F)F)cc2)CO3)N1 [Example 19, 2-(4-Trifluoromethyl-benzylamino-methyl)-2,3,8,9-tetrahydro-7H-1,4-dioxino [2,3-e]indol-8-one]"
12,0.35,"Cc1ccc(CNC[C@H]2COc3cc(F)c4c(c3O2)CC(=O)N4)cc1 [Example 36, 6-Fluoro-2-[(4-methyl-benzylamino)-methyl]-2,3,8,9-tetrahydro-7H-1,4-dioxino[2,3-e]indol-8-one]"
13,0.33,"O=C1Cc2c(ccc3c2O[C@@H](CNCCCCc2ccccc2)CO3)N1 [Example 21, 2-(4-Phenyl-butylamino)-methyl-2,3,8,9-tetrahydro-7H-1,4-dioxino[2,3-e]indol-8-one]"
14,0.34,Cc1ccc(CNC[C@H]2COc3ccc4c(c3O2)CC(=O)N4)cc1 [Example 7]
15,0.45,"CCCCCNC[C@H]1COc2ccc3c(c2O1)CC(=O)N3 [Example 16, 2-(Pentylaminomethyl)-2,3,8,9-tetrahydro-7H-1,4-dioxino[2,3-e]indol-8-one]"
16,0.29,"O=C1Cc2c(ccc3c2O[C@@H](CNCc2ccc(F)cc2)CO3)N1 [Example 20, 2-(4-Fluoro-benzylamino)-methyl-2,3,8,9-tetrahydro-7H-1,4-dioxino[2,3-e]-indol-8-one]"
